Calls of active or inactive are those of the source. No cut-off for these calls is given here.

The IC50 is the concentration needed to halve the response being measured.

One experiment deals with MCF7. Briefly: Antiproliferative activity against human MCF7 cells after 48 hrs by sulforhodamine B assay. Type of experiment: functional, cell-based. As to conditions: MCF7, 48 h. A general note: Sulforhodamine B stains cellular protein and so reports cell mass.
A further experiment deals with HepG2. Briefly: Antiproliferative activity against human HepG2 cells after 48 hrs by sulforhodamine B assay. The experiment is classed as functional, cell-based. Conditions: HepG2, 48 h.
The next experiment has as its system A549. Briefly: Antiproliferative activity against human A549 cells after 48 hrs by sulforhodamine B assay. Type of experiment: functional, cell-based. As to conditions: A549, 48 h.
The test system of experiment [1] is HeLa. In words: Antiproliferative activity against human HeLa cells after 48 hrs by sulforhodamine B assay. Type of experiment: functional, cell-based.
Experiment [2] deals with HeLa. Briefly: Inhibition of microtubule polymerization in human HeLa cells assessed as spindle fibres in nucleus at 1 mM after 24 hrs by DAPI staining-based immunofluorescence assay. Type of experiment: cell-based.
The subject of experiment [3] is HeLa. Briefly: Induction of apoptosis in human HeLa cells assessed as increase in cyclin-B1 levels at 1 mM after 24 hrs by immunoblot analysis. The experiment is classed as functional, cell-based.
A short description of experiment [4]: Inhibition of porcine tubulin polymerization after 1 hr in presence of GTP. Further details: species or system Sus scrofa.
Experiment [5] concerns HeLa. In words: Inhibition of microtubule polymerization in human HeLa cells assessed as cell rounding at 1 mM after 24 hrs by DAPI staining-based immunofluorescence assay.
The test system of experiment [6] is HeLa. Briefly: Inhibition of tubulin polymerization in human HeLa cells assessed as increase in soluble tubulin fraction at 1 mM after 24 hrs by immunoblot analysis. The experiment is classed as cell-based. For orientation: Immunoblotting shows a protein as a band on a membrane.
In experiment [7] the test system is HeLa. In words: Induction of apoptosis in human HeLa cells assessed as increase in cyclin-B1 levels at 10 mM after 24 hrs by immunoblot analysis. Type of experiment: functional, cell-based.
The test system of experiment [8] is HeLa. Briefly: Inhibition of microtubule polymerization in human HeLa cells assessed as spindle fibres in nucleus at 10 mM after 24 hrs by DAPI staining-based immunofluorescence assay. The experiment is classed as cell-based.
The subject of experiment [9] is HeLa. In words: Inhibition of tubulin polymerization in human HeLa cells assessed as increase in soluble tubulin fraction at 10 mM after 24 hrs by immunoblot analysis. Type of experiment: cell-based.
The subject of experiment [10] is HeLa. Briefly: Inhibition of microtubule polymerization in human HeLa cells assessed as cell rounding at 10 mM after 24 hrs by DAPI staining-based immunofluorescence assay.

Consider `COc1cc(Nc2nc(C3=CCN(C(=O)N4CCOCC4)CC3)nc(N3CCOCC3)n2)cc(OC)c1OC`, for which the IC50 came out at 38.2 µM in the experiment with MCF7, 29 µM in the experiment with HepG2, 32 µM in the experiment with A549 and 45.2 µM in the experiment on HeLa [1].
Take `COc1cc(Nc2nc(C3=CCN(S(=O)(=O)c4ccc(C)cc4)CC3)nc(N3CCOCC3)n2)cc(OC)c1OC`: the IC50 came to 42.1 µM in the experiment with MCF7, 25 µM with HepG2, 40.3 µM with A549 and 45.7 µM with HeLa [1].
Turning to `COc1cc(Nc2nc(C3=CCN(C(=O)C(F)(F)F)CC3)nc(N3CCOCC3)n2)cc(OC)c1OC`, the 50% inhibitory concentration (IC50) in the experiment on MCF7 was 48.4 µM; in the experiment with HepG2 it was 50.6 µM; with A549, 28.6 µM; with HeLa [1] it was 43.1 µM.
`COc1cc(Nc2nc(C3=CCN(C(=O)Cc4c[nH]c5ccccc45)CC3)nc(N3CCOCC3)n2)cc(OC)c1OC`: the IC50 in the experiment on MCF7 was found to be 29.8 µM; with HepG2, 32 µM; with A549, 43.9 µM; in the experiment with HeLa [1] it was 33.2 µM.
On to `COc1cc(Nc2nc(C3=CCN(C(=O)Nc4ccncc4)CC3)nc(N3CCOCC3)n2)cc(OC)c1OC`, for which the IC50 with MCF7 turned out to be 38.5 µM; in the experiment on HepG2, 50 µM; in the experiment on A549, 32 µM; with HeLa [1] it was 34 µM.
Take `COc1cc(Nc2nc(C3=CCN(C(=O)Nc4ccc(F)cc4)CC3)nc(N3CCOCC3)n2)cc(OC)c1OC`: the IC50 in the experiment on MCF7 came out at 25.9 µM; in the experiment with HepG2 it was 29.1 µM; in the experiment with A549, 45.7 µM; in the experiment on HeLa [1], 40.1 µM.
For `COc1cc(Nc2nc(C3=CCN(C(=O)c4ccc(Cl)cc4)CC3)nc(N3CCOCC3)n2)cc(OC)c1OC`, the IC50 came out at 38.3 µM with MCF7, 40.3 µM in the experiment with HepG2, 43.5 µM in the experiment with A549 and 34.8 µM in the experiment with HeLa [1].
For `COc1ccc(NC(=O)N2CC=C(c3nc(Nc4cc(OC)c(OC)c(OC)c4)nc(N4CCOCC4)n3)CC2)cc1`, in that order: 26.4 µM, 43.6 µM, 45.9 µM and 40.5 µM.
In the case of `COC(=O)Nc1nc2cc(C(=O)c3cccs3)ccc2[nH]1` [NOCODAZOLE], the inhibition entry in the experiment with HeLa [2], with HeLa [5] and in the experiment on HeLa [6] was “Active” in each case. In the experiment on HeLa [3], the result was Active. For the same compound, the IC50 is 1.5 µM in the experiment on MCF7, 0.8 µM in [4], 1.1 µM in the experiment with HepG2 and 1.6 µM with HeLa [1].
`COc1cc(Nc2nc(C3=CCN(C(=O)c4ccc(Br)cc4)CC3)nc(N3CCOCC3)n2)cc(OC)c1OC`: the IC50 in the experiment on MCF7 is 39.8 µM; in the experiment on HepG2, 35.7 µM; with A549 it was 34 µM; in the experiment on HeLa [1] it was 40.4 µM.
As to `COc1cc(Nc2nc(C3=CCN(C(=O)N4CCN(c5ccc(C)cc5)CC4)CC3)nc(N3CCOCC3)n2)cc(OC)c1OC`, the IC50 in the experiment on MCF7 was found to be 49.1 µM; with HepG2, 40 µM; in the experiment on A549, 29.6 µM; in the experiment on HeLa [1] it was 39.6 µM.
As to `COc1cc(Nc2nc(C3=CCN(S(=O)(=O)c4ccc(Cl)cc4)CC3)nc(N3CCOCC3)n2)cc(OC)c1OC`, the IC50 is 30.6 µM in the experiment with MCF7, 49.3 µM with HepG2, 40.8 µM in the experiment on A549 and 51 µM in the experiment with HeLa [1].
On to `COc1cc(Nc2nc(C3=CCN(C(=O)c4ccc(Br)cc4O)CC3)nc(N3CCOCC3)n2)cc(OC)c1OC`, for which the 50% inhibitory concentration (IC50) stood at 28 µM with MCF7, 38.9 µM in the experiment on HepG2, 45.9 µM in the experiment on A549 and 43.9 µM with HeLa [1].
In the same order, the values of `COc1ccc(C(=O)N2CC=C(c3nc(Nc4cc(OC)c(OC)c(OC)c4)nc(N4CCOCC4)n3)CC2)cc1` are 32.1 µM, 30.6 µM, 33.3 µM and 43 µM.
As to `COc1cc(Nc2nc(C3=CCN(S(C)(=O)=O)CC3)nc(N3CCOCC3)n2)cc(OC)c1OC`, the IC50 amounted to 28.9 µM with MCF7, 28.5 µM with HepG2, 39 µM in the experiment with A549 and 32 µM in the experiment with HeLa [1].
Consider `COc1cc(Nc2nc(C3=CCN(C(=O)N4CCN(C)CC4)CC3)nc(N3CCOCC3)n2)cc(OC)c1OC`, for which the IC50 with MCF7 was determined as 40.8 µM; in the experiment with HepG2, 34.9 µM; in the experiment with A549, 34.6 µM; with HeLa [1], 40.2 µM.
With `COc1cc(Nc2nc(C3=CCN(S(=O)(=O)c4ccc(C(F)(F)F)cc4)CC3)nc(N3CCOCC3)n2)cc(OC)c1OC`, the IC50 in the experiment with MCF7 stood at 40.5 µM; in the experiment on HepG2, 27.2 µM; in the experiment on A549, 29.9 µM; in the experiment on HeLa [1], 32.1 µM.
With `COc1cc(Nc2nc(C3=CCN(C(=O)c4ccc([N+](=O)[O-])o4)CC3)nc(N3CCOCC3)n2)cc(OC)c1OC`, the outcome in the experiment with HeLa [7] was Active. Further, the IC50 in the experiment with MCF7 came out at 11.7 µM; in experiment [4], 5.2 µM; in the experiment on HepG2, 9.6 µM; in the experiment with A549 it was 10.5 µM; in the experiment on HeLa [1], 12.3 µM. Besides, the inhibition entry in the experiment on HeLa [8], in the experiment with HeLa [9] and in the experiment on HeLa [10] was “Active” throughout.
Consider `COc1cc(Nc2nc(C3=CCN(S(=O)(=O)c4ccc(Br)s4)CC3)nc(N3CCOCC3)n2)cc(OC)c1OC`, for which the half-inhibitory concentration (IC50) is 30.6 µM in the experiment with MCF7, 28 µM in the experiment on HepG2, 29 µM in the experiment with A549 and 39.6 µM with HeLa [1].
As to `COc1cc(Nc2nc(C3=CCN(C(=O)N4CCCCC4)CC3)nc(N3CCOCC3)n2)cc(OC)c1OC`, the IC50 with MCF7 turned out to be 40.5 µM; with HepG2, 41.7 µM; in the experiment with A549, 30.8 µM; in the experiment with HeLa [1] it was 34 µM.
Regarding `COc1cc(Nc2nc(C3=CCN(C(C)=O)CC3)nc(N3CCOCC3)n2)cc(OC)c1OC`, the IC50 in the experiment on MCF7 was found to be 40.2 µM; in the experiment on HepG2, 50.6 µM; in the experiment with A549, 49 µM; with HeLa [1], 45.7 µM.
Regarding `COc1cc(Nc2nc(C3=CCN(S(=O)(=O)c4ccc(C(C)=O)cc4)CC3)nc(N3CCOCC3)n2)cc(OC)c1OC`, the half-inhibitory concentration (IC50) with MCF7 amounted to 32.1 µM; in the experiment on HepG2, 36.5 µM; in the experiment on A549 it was 32 µM; with HeLa [1], 45 µM.
As for `COc1cc(Nc2nc(C3=CCN(S(=O)(=O)c4ccc(Br)cc4)CC3)nc(N3CCOCC3)n2)cc(OC)c1OC`, the IC50 with MCF7 amounted to 32.5 µM; in the experiment on HepG2, 40.4 µM; in the experiment on A549, 43.6 µM; in the experiment with HeLa [1], 30.6 µM.

For the origin of these results see ChEMBL document CHEMBL4052738, “Design and synthesis of 4-morpholino-6-(1,2,3,6-tetrahydropyridin-4-yl)-N-(3,4,5-trimethoxyphenyl)-1,3,5-triazin-2-amine analogues as tubulin polymerization inhibitors” (Bioorg Med Chem Lett, 2017).
